Entries after “also recorded” stand apart in the source; their conditions may differ.
How the values were obtained:
Assay type in all cases: cell-based
HT-29 cells = assay: Necroptosis flow assay (Annexin V / propidium iodide staining, flow cytometry); conditions: 100 μM compound 30 min before induction with TNF-a/Z-VAD-fmk/SM-164 for 7 hours, vs DMSO
Procedure: Necroptosis was allowed to proceed for 7 hours (hrs) before Annexin V and propidium iodide staining and flow cytometry analysis (FIG. 3). Cells staining positive for either Annexin V or propidium iodide were quantified as necroptotic cells (FIG. 1F). […] Docking results from RMITC03 and RMITC09 indicate most interactions are driven through hydrophobic interactions with a few hydrogen bonds interacting with the backbone of the protein (FIG. 1D-E).
HT-29 cells were grown in DMEM (Corning 10-013-CV) with 10% FBS (HyClone SH3091003)_and incubated at 37° C. and 5% CO2. […] Necroptosis was induced with 25 ng/mL TNF-a (Prospec CYT-223), 20_μM Z-VAD-fmk (AdooQ Bioscience A12373), and 0.1 μM SM-164 (AdooQ Bioscience A15800) for 7 hours in an incubator at 37° C. and 5% CO2. HT-29 cells were trypsinized (Corning 25-053-CI) and washed with DPBS (Corning 21-031-CV) (see, Bundscherer, A. et al. Anticancer Research 33, 3201-3204 (2013)). Cells were processed and stained with Annexin V and propidium iodide as described by manufacturer's protocol in the eBioscience™ Annexin V-FITC Apoptosis Detection Kit (Invitrogen BMS500FI-500). Flow cytometry was performed with MACSQuant® Analyzer 10 and data was processed with Flowlogic™ flow cytometry analysis software.

RIPK1 = assay: Western blot, total RIPK1 in HT-29 cells; conditions: 100 μM, necroptosis induced 3 hrs, normalized to b-actin
Procedure: (§1) If RMITC03 and RMITC09 are disrupting the protein-protein interactions between RIPK3 and MLKL, then the effect of such inhibition should be observed in the activation of MLKL. To test this, HT-29 cells were treated with 100 μM of each compound for 30 min before necroptosis induction. Cells were harvested after 3 hrs with RIPA buffer in order to determine amount of inhibition at each stage of the necroptotic signaling molecules. When comparing the amounts of RIPK1, RIPK3, and MLKL in DMSO treated necroptosis activated cells (T/S/Z) against non necroptosis activated cells (Non-treated samples), there is no statistically significant difference in the amounts of these proteins (FIG. 6A-B).
(§2) HT-29 cells were grown as described above and plated on a 6 well plate. After incubating overnight, cells were incubated with 100 μM of noted compounds in FIG. 3 for 30 min._Necroptosis was induced in the cells for 3 hours, as described in Necroptosis flow assay section, before harvesting with 75 μL RIPA buffer system (Santa Cruz sc-24948) containing 2 mM PMSF, 1 mM Sodium Orthovanadate, and 1% final volume of protease inhibitor. Samples were_centrifuged for 10 min at 20000×g and 4° C. […]
(§3) The secondary Anti-rabbit IgG, HRP-linked antibody (Cell Signaling Technology #7074S) was_used at a dilution of 1:1500 in PBS-T with 5% BSA. […] Data_were quantified with ImageLab™ software. […]

RIPK3 = assay: Western blot, total RIPK3 in HT-29 cells; conditions: 100 μM, necroptosis induced 3 hrs, normalized to b-actin
Procedure: as §1, §2, §3

MLKL = assay: Western blot, total MLKL in HT-29 cells; conditions: 100 μM, necroptosis induced 3 hrs, normalized to b-actin
Procedure: as §1, §2, §3

Phospho-RIPK1 (Ser166) = assay: Western blot, phosphorylated RIPK1 in HT-29 cells; conditions: 100 μM, necroptosis induced 3 hrs, normalized to b-actin
From the text: Autophosphorylation of RIPK1 at Ser166 facilitates RIPK1 kinase activity to induce cell_death (see, Meng, H. Y. et al. Proceedings of the National Academy of Sciences of the United States of America 115, E2001-E2009 (2018)). As such, phosphorylation at Ser166 was used to detect activation of necroptosis. […] Similarly, in the non-necroptosis activated on treated sample, there is also no phosphorylated RIPK1 signal. When comparing the DMSO sample to RMITC03 and RMITC09 treated samples, there is a large amount of activated phosphorylated RIPK1 with no difference between the DMSO control and RMITC03 and RMITC09 compounds.
as §2, §3

Phospho-RIPK3 (Ser227) = assay: Western blot, phosphorylated RIPK3 in HT-29 cells; conditions: 100 μM, necroptosis induced 3 hrs, normalized to b-actin
Procedure: As previously reported, RIPK3 activation from necroptotic stimulus can be readily and accurately measured by phosphorylation at Ser227 (see, Chen, W. Z. et al. Journal of Biological Chemistry 288, 16247-16261 (2013)).
as §2, with “C. The supernatant was mixed with 25 μL of NuPAGE_LDS sample buffer dye 4× containing 0.1 M DTT and heated for 10 min at 90° C. SDS-PAGE_separation and membrane transfer were performed as described under the CETSA protocol.” for “C.”
as §3

Phospho-MLKL (Ser358) = assay: Western blot, phosphorylated MLKL in HT-29 cells; conditions: 100 μM, necroptosis induced 3 hrs, normalized to b-actin
Procedure: RIPK3 is known to activate MLKL through phosphorylation at Ser358 for necroptotic cell death (see, Sun, L. M. et al. Cell 148, 213-227 (2012)). Therefore, the amount of phosphorylated MLKL at Ser358 was used to determine if any inhibition of MLKL activation occurred.
as §2, with “C. The supernatant was mixed with 25 μL of NuPAGE_LDS sample buffer dye 4× containing 0.1 M DTT and heated for 10 min at 90° C. SDS-PAGE_separation and membrane transfer were performed as described under the CETSA protocol.” for “C.”
as §3

CC(C)S(=O)(=O)c1ccc2nccc(Nc3ccc4scnc4c3)c2c1 [GSK'872]
inhibitory effect on necroptosis (cells positive for Annexin V or propidium iodide) (HT-29 cells): largest inhibition of necroptosis
amount of RIPK1 compared to DMSO (RIPK1): no significant difference
amount of RIPK3 compared to DMSO (RIPK3): no significant difference
amount of MLKL compared to DMSO (MLKL): no significant difference
phosphorylated RIPK1 (Ser166) signal compared to DMSO (Phospho-RIPK1 (Ser166)): significant decrease; also recorded: no observable phosphorylated RIPK11 signal
phosphorylated RIPK3 (Ser227) compared to DMSO (Phospho-RIPK3 (Ser227)): significant decrease; also recorded: Inhibition of activated phosphorylated RIPK3 at Ser227
phosphorylated MLKL (Ser358) compared to DMSO (Phospho-MLKL (Ser358)): significant decrease; also recorded: lowest levels of phosphorylated MLKL

CN1C(=O)C(Cc2c[nH]c3ccccc23)NC1=S (stereo not shown) [Nec-1]
amount of RIPK1 compared to DMSO (RIPK1): no significant difference
amount of RIPK3 compared to DMSO (RIPK3): no significant difference
amount of MLKL compared to DMSO (MLKL): no significant difference
phosphorylated RIPK1 (Ser166) signal compared to DMSO (Phospho-RIPK1 (Ser166)): significant decrease; also recorded: no observable phosphorylated RIPK11 signal
phosphorylated RIPK3 (Ser227) compared to DMSO (Phospho-RIPK3 (Ser227)): did not completely inhibit activation of phosphorylated RIPK3
phosphorylated MLKL (Ser358) compared to DMSO (Phospho-MLKL (Ser358)): significant decrease; also recorded: lowest levels of phosphorylated MLKL

Source: patent US20230099837A1, “COMPOSITIONS AND METHODS FOR TREATING NEURODEGENERATIVE DISORDERS WITH RIPK1/RIPK3 INHIBITORS” (Arizona Board of Regents on Behalf of the University of …, priority 2020, published 2023)
